Results on 1 compound are retold here after US20240277695A1, “FOXO INHIBITORS FOR USE IN THE TREATMENT OF DISEASES CAUSED BY ABNORMAL PROCESSING OF TDP-43 AND/OR FUS PROTEINS” (Administración General de la Comunidad Autónoma de Euskadi, priority 2020, published 2024).

Entries after “also recorded” stand apart in the source; their conditions may differ.

Data set [1] relates to Drosophila with motor neuron-specific (OK6 promoter) Tbph silencing. Briefly: Locomotor activity (climbing) assay in motor neuron-specific Tbph/Caz knockdown flies. Type of data set: in vivo, Drosophila melanogaster. Particulars: 30 μM, 20 days-old flies. The text has this:
FIG. 9. FOXO1inh rescues (AS1842856) impaired climbing capacity induced by motor neuron-specific knockdown of ALS-causing ortholog genes in Drosophila melanogaster. Represented two different models of Tbph silence (silencing two different locus of Tbph gene) and one Caz (FUS ortholog) A) Locomotor activity of motor neuron specific (OK6 promoter) Tbph silencing Drosophila melanogaster using iTbph(p(KK08354)) plasmid. Generated genotypes; UAS-Dicer2-+-OK6-GAL4 (control) and UAS-Dicer2-iTbph^p(KK08354)-OK6-GAL4 (iTbph^p(KK08354)). B) Locomotor activity of motor neuron specific (OK6 promoter) Tbph silencing Drosophila melanogaster using iTbph(attP40) plasmid.; UAS-Dicer2-+-OK6-GAL4 (control) and UAS-Dicer2-iTbph^(attP40)-OK6-GAL4 (iTbph^(attP40)). C) Locomotor activity of motor neuron specific (OK6 promoter) Tbph silencing Drosophila melanogaster using iCaz plasmid.; UAS-Dicer2-+-OK6-GAL4 (control) and UAS-Dicer2-iCaz-OK6-GAL4 (iCaz). Assays were performed at 20 days-old flies and repeated 5 times each tube (5 flies/tube). Data are expressed as the percentage of flies passing for each group.
Two-way ANOVA was performed together Bonferroni post-hoc multiple comparison (*p<0.05; **p<0.01; ***p<0.001) or T-test for two groups comparisons (*p<0.05; **p<0.01; ***p<0.001). Values are expressed as mean+SD.
One of the most important features of ALS is motor neuron degeneration. […]

For data set [2], the system named is control Drosophila strain UAS-Dicer2-+-Mef2-GAL4. Briefly: Climbing assay and lifespan of treated control flies. Particulars: 30 μM. Type of data set: in vivo, Drosophila melanogaster. From the text:
(§1) FIG. 7. Foxo inhibition improves muscle function and lifespan in Drosophila flies with muscle-conditioned deficiency of TDP-43 or FUS. […] F, Caz or Tbph-silenced flies have reduced survival times, as indicated by Kaplan-Meier curves (left panel) and median lifespan (right panel) (n=100 flies per group). […] This effect was particularly noticeable in iCaz and iTbph^attp40) fly lines (n=100 flies per group). *p<0.05: **p<0.01, ***p<0.001.
After knowing that FoxO inhibition provides benefits to muscle cells in vitro, we wanted to further test the effects of targeting FoxO factors on muscle function under the context of TDP-43 or FUS loss-of-function in vivo. To that purpose, we generated various Drosophilamodels with muscle-conditioned silencing of either Cabeza (Caz) or Tbph genes, which are orthologs of human FUS or TARDBP, respectively. […] Drosophila has only one ortholog for mammalian FoxO factors, which is called foxo. Although the affinity of AS1842856 for Drosophila foxo has never been tested, the fact that FoxO DNA-binding sites, with which the inhibitor interacts, are well conserved among species, including Drosophila melanogaster (FIG. 7B) provides enough rationale to test its efficacy in Drosophila models.

Data set [3] has as its system primary ALS myoblasts. The data set is described as follows: Glycolytic flux (ECAR) of primary ALS myoblasts. The format is cell-based, human. From the text: We looked at preliminary links between the findings in genetically-induced myoblasts and features of myoblasts from patients with ALS. To this aim, we cultured primary myoblasts obtained from muscle biopsies of two patients with ALS (patient 1 is sporadic [sALS] and patient 2 is familial [fALS]) and one control. […] Changes in TDP-43 localization were accompanied by an altered subcellular distribution of FoxO1, as reflected by increased levels of FoxO1 and FoxO3 in nuclei (FIG. 6A,C) and enhanced nuclear-to-cytosolic ratio in both patients (FIG. 6C). Remarkably, nuclear localizations of TDP-43 and FoxO1 were inversely associated in patient 2 (FIG. 6D).
As expected, alterations of FoxO1 in ALS myoblasts were accompanied by aberrant glycolytic flux, as indicated by lower ECAR values after addition of glucose to the media (FIG. 6F).

Data set [4] concerns iTbph^pkk(108254) Drosophila model. Briefly: Adult pharate lethality / pupa eclosion assay. Type of data set: in vivo. The note with it: 30 μM. The protocol:
FIG. 8. […] A) Number of total pupas and the eclosioned ones were counted in different 5 tubes each group. […] T-test was performed ***p<0,001. Values are expressed as percentage mean+SD.
As mentioned in Example 6, iTbph^pkk(108254) Drosophila completed the metamorphosis from larvae to adult within the pupa (a phase known as pharate), but were not able to eclode from the pupa and, consequently, died. This feature is termed as adult pharate lethality and allowed us to perform assays with which to judge the efficacy of FoxO inhibition.

Data set [5] relates to Caz or Tbph-silenced flies. Briefly: Longevity assay in flies with muscle-conditioned silencing of Caz or Tbph. The format is in vivo, Drosophila melanogaster. The note with it: 30 μM, particularly iCaz and iTbph^attp40.
Description: as §1
We performed longevity assays to further characterize these fly models. Either of the Caz or Tbph-silenced flies manifested dramatic reductions of survival times when compared to control group, as indicated by Kaplan-Meier curves and median lifespan (FIG. 7F). […] This effect was particularly noticeable in iCaz and iTbph^attp40 fly lines (FIG. 7G).

For `CCn1cc(C(=O)O)c(=O)c2c(N)c(F)c(NC3CCCCC3)cc21` [AS1842856], the “locomotor impairments in climbing assay” value in data set [1] is given as “rescues; also recorded: fully rescue locomotor impairments”. For the same compound, in data set [2], the toxicity on lifespan entry was “lack of toxicity” and the “toxicity on motor function” value was “lack of toxicity”. The “basal glycolysis rate (ECAR after glucose)” value in data set [3] is listed as “corrected; also recorded: improved the basal glycolysis rate”. Besides, the “eclosion efficiency of pupas” value in data set [4] (UAS-Dicer2-iTbph^pkk(108254)-Mef2-GAL4) is “significantly ameliorates”. The “pharate lethality in control flies” value in data set [4] (control flies) is “did not produce pharate lethality”. Besides, the “mitigation of pharate lethality” value in data set [4] (iTbph^pkk(108254) Drosophila) was “approximately 20%”. The “survival (Kaplan-Meier, median lifespan)” value in data set [5] is “higher survival rates”.
